Activity calls are given as the source filed them.
Key:
Cytochrome P450 2D6 = Cytochrome P450 2D6 (Homo sapiens, UniProt P10635);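 further: CYP2D6 member of a cytochrome P450 panel assay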
Cytochrome P450 1A2 = target: T1, Cytochrome P450 1A2 (Homo sapiens, UniProt P05177);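 further: PubChem cytochrome P450 panel assay, CYP1A2 panel member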
T1 sequence (P05177 whole entry): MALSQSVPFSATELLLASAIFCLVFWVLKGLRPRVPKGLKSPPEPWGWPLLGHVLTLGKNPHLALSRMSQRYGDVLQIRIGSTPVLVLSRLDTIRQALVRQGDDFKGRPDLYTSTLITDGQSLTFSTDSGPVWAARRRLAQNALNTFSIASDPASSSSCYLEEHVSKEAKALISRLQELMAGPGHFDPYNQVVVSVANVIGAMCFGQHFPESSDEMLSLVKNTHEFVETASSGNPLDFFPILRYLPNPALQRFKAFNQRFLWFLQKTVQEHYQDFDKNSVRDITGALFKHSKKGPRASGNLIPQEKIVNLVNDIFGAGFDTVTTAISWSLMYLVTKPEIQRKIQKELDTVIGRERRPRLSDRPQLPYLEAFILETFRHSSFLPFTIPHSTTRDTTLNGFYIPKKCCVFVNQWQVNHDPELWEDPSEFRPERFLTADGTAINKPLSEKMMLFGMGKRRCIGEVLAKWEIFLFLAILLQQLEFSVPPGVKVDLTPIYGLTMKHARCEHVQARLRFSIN

Cytochrome P450 3A4 = Cytochrome P450 3A4 (Homo sapiens, UniProt P08684);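 further: CYP3A4 tested as one member of a cytochrome P450 panel screen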
Cytochrome P450 2C9 = Cytochrome P450 2C9 (Homo sapiens, UniProt P11712)
cells [1] = type: functional, cell-based
cells [2] = type: functional, cell-based; remark: listed apart in the source
[3] = reduction of Shn3 3'UTR-driven luciferase in osteoblasts – cell-based, Clone20 osteoblasts, firefly luciferase, cherry-picked, dose response (AID 624132); type: functional;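 further: firefly luciferase luminescence from reporter carrying the Shn3 3'UTR in osteoblasts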
[4] = loss of viability in HepG2 cells – cell-based, CellTiter-Glo, cherry-picked, cytotoxicity control for Shn3 inhibitor project, dose response (AID 624134); type: functional
[5] = non-specific 3'UTR reporter inhibition in Clone20-Shn3RL – cell-based, Renilla luciferase, cherry-picked, counter-screen for Shn3 inhibitor project, dose response (AID 624133); type: functional
Cytochrome P450 2C19 = Cytochrome P450 2C19 (Homo sapiens, UniProt P33261); test: Cytochrome panel assay with activity outcomes. Panel member name: p450-cyp2c19 Compounds with AC50 equal or less than 10 uM are considered active; type: functional
[6] = target: T2, Corticotropin-releasing factor receptor 2/Corticotropin-releasing factor-binding protein (Homo sapiens, UniProt P24387+Q13324); test: Dose Response confirmation of uHTS hits for small molecule antagonists of the CRF-binding protein and CRF-R2 receptor complex.; type: functional; conditions: read-out: IC50_Mean
T2 sequence (Q13324 whole entry): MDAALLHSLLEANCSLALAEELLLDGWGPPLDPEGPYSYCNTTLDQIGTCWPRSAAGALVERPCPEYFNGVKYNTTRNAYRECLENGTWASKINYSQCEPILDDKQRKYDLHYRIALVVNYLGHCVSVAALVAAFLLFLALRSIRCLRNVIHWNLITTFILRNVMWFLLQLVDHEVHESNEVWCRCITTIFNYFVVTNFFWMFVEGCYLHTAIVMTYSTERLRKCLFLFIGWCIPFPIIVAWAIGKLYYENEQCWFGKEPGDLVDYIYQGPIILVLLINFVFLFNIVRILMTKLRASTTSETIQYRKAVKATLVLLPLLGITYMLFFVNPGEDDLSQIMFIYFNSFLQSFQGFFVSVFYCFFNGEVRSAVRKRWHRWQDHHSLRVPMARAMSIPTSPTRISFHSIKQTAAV
T2 sequence (P24387 whole entry): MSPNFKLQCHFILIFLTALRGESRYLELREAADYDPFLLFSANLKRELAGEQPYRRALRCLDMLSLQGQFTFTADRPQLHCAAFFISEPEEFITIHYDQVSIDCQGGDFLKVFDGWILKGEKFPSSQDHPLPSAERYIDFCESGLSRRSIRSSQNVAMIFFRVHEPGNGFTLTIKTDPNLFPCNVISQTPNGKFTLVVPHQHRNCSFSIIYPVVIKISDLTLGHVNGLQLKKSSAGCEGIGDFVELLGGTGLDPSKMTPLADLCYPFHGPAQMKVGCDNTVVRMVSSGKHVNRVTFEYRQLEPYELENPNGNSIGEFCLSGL

[7] = target: T2, Corticotropin-releasing factor receptor 2/Corticotropin-releasing factor-binding protein; test: activators of CRF receptor 2 with binding protein – uHTS hits, confirmation (AID 602473); type: functional; conditions: read-out: EC50_Mean
[8] = activation of miR-122 Renilla sensor silencing – cell-based, Huh7 psiCHECK-miR122, Renilla luciferase, cherry-picked, dose response (AID 651956); type: functional;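 further: huh7 hepatoma cells stably carrying a psiCHECK-2 miR-122 sensor plasmid; renilla luciferase signal reporting endogenous miR-122 activity after 48 h compound exposure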
[9] = general mammalian cell viability loss – activator set, cherry-pick, cytotoxicity control for miR-122 modulator project, dose response (AID 720690); type: functional, cell-based;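 further: HEK293T human cells scored for general mammalian cytotoxicity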
[10] = tested on: Streptococcus sp. 'group A'; test: Streptococcus pyogenes SK(-)GAS viability under kanamycin – luminescence, BacTiterGlo, confirmation, counter-screen for streptokinase expression inhibitor project, dose response (AID 1900); type: functional, organism-based
Streptokinase A = target: T3, Streptokinase A (Streptococcus pyogenes serotype M1, UniProt P10520); test: viability-normalized secreted streptokinase activity reduction – plasminogen activation absorbance, OD405, dose response (AID 1914); type: functional, Streptococcus pyogenes M1 GAS;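 further: secreted streptokinase activity via plasminogen activation per viability signal from cell pellet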
T3 sequence (P10520 whole entry): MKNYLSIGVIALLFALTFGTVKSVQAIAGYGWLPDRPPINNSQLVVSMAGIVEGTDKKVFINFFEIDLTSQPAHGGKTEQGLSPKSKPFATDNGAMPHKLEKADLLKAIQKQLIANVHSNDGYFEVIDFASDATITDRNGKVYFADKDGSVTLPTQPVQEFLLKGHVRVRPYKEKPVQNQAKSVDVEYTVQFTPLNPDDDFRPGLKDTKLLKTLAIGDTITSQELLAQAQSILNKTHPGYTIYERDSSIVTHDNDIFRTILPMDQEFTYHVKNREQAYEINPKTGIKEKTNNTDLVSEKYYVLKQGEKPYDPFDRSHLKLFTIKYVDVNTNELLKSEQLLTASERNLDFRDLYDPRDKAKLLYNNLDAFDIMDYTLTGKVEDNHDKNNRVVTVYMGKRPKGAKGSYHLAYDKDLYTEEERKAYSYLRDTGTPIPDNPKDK

Streptococcus = test: GAS UMAA2166 growth inhibition – luminescence, BacTiterGlo, counter-screen for streptokinase expression inhibitor project, dose response (AID 1915); type: functional, organism-based;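 further: potency for reduction of bacterial viability or growth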
[11] = general mammalian cell viability loss – inhibitor set, cherry-pick, set 2, cytotoxicity control for miR-122 modulator project, dose response (AID 720697); type: functional, cell-based
[12] = toxicity toward HepG2 liver cells – cell-based, plate reader, cherry-pick, antagonist series, cytotoxicity control, dose response (AID 743416); type: functional
[13] = blockers of bursicon-stimulated LGR2 cAMP reporter – cell-based, HEK293, CRE-luciferase reporter, cherry pick, set 2, dose response (AID 743343); type: functional;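 further: transfected cells were stimulated with diluted bursicon conditioned medium after compound addition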
[14] = blockade of melanocortin 4 receptor signaling – cell-based, plate reader, cherry pick, counter-screen for LGR2 antagonist project, dose response (AID 743444); type: functional;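 further: transfected HEK 293 cells stimulated with alpha-MSH peptide; potency of inhibitors of the alpha-MSH evoked signal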

Chain of Cytochrome P450 2C9 (P11712 whole entry): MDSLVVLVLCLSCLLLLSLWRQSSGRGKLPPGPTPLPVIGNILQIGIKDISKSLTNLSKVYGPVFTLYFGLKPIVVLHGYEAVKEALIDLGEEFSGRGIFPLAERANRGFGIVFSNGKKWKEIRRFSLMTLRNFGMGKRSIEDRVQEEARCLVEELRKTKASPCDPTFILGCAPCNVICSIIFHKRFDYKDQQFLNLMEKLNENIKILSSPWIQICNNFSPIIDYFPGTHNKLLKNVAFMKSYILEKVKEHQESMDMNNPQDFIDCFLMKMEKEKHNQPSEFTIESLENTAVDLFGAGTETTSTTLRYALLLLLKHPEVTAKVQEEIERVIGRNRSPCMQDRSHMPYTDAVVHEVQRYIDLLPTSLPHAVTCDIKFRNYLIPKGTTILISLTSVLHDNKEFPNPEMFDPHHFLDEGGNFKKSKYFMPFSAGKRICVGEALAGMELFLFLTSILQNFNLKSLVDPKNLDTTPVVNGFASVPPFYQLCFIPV
Chain of Cytochrome P450 2D6 (P10635 whole entry): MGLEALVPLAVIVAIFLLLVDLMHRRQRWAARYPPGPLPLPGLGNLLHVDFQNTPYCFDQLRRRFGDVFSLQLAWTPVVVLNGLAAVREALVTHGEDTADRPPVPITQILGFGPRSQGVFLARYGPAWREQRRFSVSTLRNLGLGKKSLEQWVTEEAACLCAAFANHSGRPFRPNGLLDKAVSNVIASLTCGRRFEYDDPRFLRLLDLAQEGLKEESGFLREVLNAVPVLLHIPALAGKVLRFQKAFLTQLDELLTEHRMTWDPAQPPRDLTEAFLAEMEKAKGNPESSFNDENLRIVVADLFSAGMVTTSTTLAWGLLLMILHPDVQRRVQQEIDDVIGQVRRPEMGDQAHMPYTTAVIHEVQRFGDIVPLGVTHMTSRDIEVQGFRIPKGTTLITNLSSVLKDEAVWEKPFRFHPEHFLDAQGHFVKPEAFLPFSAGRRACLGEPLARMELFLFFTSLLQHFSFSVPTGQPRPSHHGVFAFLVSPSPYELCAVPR
Chain of Cytochrome P450 3A4 (P08684 whole entry): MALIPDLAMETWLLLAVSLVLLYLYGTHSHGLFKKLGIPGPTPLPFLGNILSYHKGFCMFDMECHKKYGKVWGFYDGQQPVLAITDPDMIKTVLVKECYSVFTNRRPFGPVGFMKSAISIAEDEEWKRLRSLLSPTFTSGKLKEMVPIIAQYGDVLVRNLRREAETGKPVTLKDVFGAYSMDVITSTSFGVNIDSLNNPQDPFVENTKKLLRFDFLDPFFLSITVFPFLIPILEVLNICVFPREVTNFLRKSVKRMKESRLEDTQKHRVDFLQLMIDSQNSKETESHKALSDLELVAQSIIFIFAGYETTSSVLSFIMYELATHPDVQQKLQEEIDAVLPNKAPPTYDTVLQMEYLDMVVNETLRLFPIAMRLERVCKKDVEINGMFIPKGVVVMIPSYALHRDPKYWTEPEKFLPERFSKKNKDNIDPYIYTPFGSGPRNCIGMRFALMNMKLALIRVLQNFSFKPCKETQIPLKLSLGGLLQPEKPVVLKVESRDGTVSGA
Chain of Cytochrome P450 2C19 (P33261 whole entry): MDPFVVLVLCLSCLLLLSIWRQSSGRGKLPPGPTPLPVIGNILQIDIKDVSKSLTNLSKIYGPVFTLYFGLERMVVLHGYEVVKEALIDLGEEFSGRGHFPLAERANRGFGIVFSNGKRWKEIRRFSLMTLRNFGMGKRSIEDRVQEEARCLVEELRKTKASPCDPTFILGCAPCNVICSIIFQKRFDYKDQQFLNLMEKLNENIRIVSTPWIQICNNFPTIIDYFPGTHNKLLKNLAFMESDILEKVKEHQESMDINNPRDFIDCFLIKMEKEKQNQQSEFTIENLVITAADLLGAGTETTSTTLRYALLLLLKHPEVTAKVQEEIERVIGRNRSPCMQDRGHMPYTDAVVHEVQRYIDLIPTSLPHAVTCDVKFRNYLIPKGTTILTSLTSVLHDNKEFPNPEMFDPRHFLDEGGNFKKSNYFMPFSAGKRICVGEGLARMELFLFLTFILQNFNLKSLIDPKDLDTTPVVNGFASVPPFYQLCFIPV

## O=c1c2ccccc2nnn1CSc1nnnn1-c1ccccc1
Cytochrome P450 2D6
  AC50: 17.8 µM (inconclusive)
Cytochrome P450 1A2
  AC50: 25.1 µM (inconclusive)
Cytochrome P450 3A4
  AC50: 12.6 µM (inconclusive)
Cytochrome P450 2C9
  AC50: inconclusive

## COc1cc(/C=C/C(=O)Nc2cc(C(F)(F)F)ccc2Cl)cc(OC)c1OC
Cytochrome P450 2D6
  AC50: 0.00562 µM (inconclusive)
Cytochrome P450 1A2
  AC50: 15.8 µM (inconclusive)
Cytochrome P450 2C9
  AC50: inconclusive

## CCCSCCCNC(=O)c1ccccc1NC(=O)C1=CSCCO1
Cells [1]
  EC50: > 350 µM (not active)
Cells [2]
  EC50: 297 µM (active)

## CC(C)CC(N)c1csc(NC(=O)c2cc(C(C)(C)C)nn2Cc2ccccc2)n1 (stereo not given)
[3]
  AC50: 4.85 µM (active)
[4]
  AC50: 8.75 µM (active)
[5]
  AC50: 20.8 µM (active)

## Cc1cc2nc(C)n(CCCN)c2cc1C.Cl
Cytochrome P450 2C19
  AC50: inconclusive
[6]
  IC50: > 47.1 µM (inactive)
[7]
  EC50: > 53 µM (inactive)
Cytochrome P450 2C9
  AC50: inconclusive

## C[C@@H]1CN([C@H](C)CO)S(=O)(=O)c2ccc(C#Cc3ccccc3F)cc2O[C@@H]1CN(C)C(=O)Cc1ccncc1
[8]
  AC50: 5.11 µM (active)
[9]
  AC50: 32.4 µM (active)

## O=S(=O)(NCc1nnc2c(C(F)(F)F)cc(Cl)cn12)c1ccccc1
[10]
  EC50: > 150 µM (not active)
Cells [1]
  EC50: > 350 µM (not active)
Streptokinase A
  EC50: > 150 µM (not active)
Cells [2]
  EC50: > 350 µM (not active)
Streptococcus
  EC50: > 150 µM (not active)

## O=C(CN1CCC(C(=O)c2ccc(Cl)cc2)CC1)Nc1ccc2c(c1)OCCO2
Cells [1]
  EC50: > 350 µM (not active)
Cells [2]
  EC50: > 350 µM (not active)

## COc1ccccc1C(=O)Nc1ccccc1SC(=O)c1ccccc1OC
Cells [1]
  EC50: > 350 µM (not active)
Cells [2]
  EC50: > 350 µM (not active)

## O=C1CCCc2ccccc2N1Cc1ccc(F)cc1
Cells [1]
  EC50: > 350 µM (not active)
Cells [2]
  EC50: > 350 µM (not active)

## COc1ccc(NC(=O)N(C)C[C@H]2Oc3cc(C#CCC(C)C)ccc3S(=O)(=O)N([C@@H](C)CO)C[C@H]2C)cc1
[11]
  AC50: 6.46 µM (active)
[9]
  AC50: 27 µM (active)

## CN1C(=O)c2cc(NC(=O)Nc3ccccc3F)ccc2OC[C@@H]2O[C@@H](CC(=O)NCc3ccc(-c4ccccc4)cc3)CC[C@@H]21
[9]
  AC50: 47.9 µM (active)

## CC(=O)N1CCCC(c2cc(C(=O)Nc3ccccc3)no2)C1 (stereo not given)
[12]
  AC50: > 52 µM (inactive)
[13]
  AC50: 2.13 µM (active)
[14]
  AC50: 1.98 µM (active)

Source: ChEMBL document CHEMBL1201862, “PubChem BioAssay data set” (2004)
